The record followed here is PubChem BioAssay (NCI).

Some test systems named below: MDA-N; 786-0 renal; EKVX NSCLC; SNB-75 CNS; UO-31 renal; SR leukemia; HOP-92 NSCLC; BT-549 breast; SK-MEL-5 melanoma; PC-3 prostate; ACHN renal; HL-60(TB) leukemia; OVCAR-5 ovarian.
Holding throughout (test): growth of human tumour cells (NCI), 48 h

“And” between values parts separate entries of the source, which are not always exact repeats. Identical values can stand only once.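 Five compound concentrations were applied to cells in 96-well plates for 48 hours; endpoints were derived by simple linear interpolation of the resulting dose-response curve. At the GI50, growth is halved. TGI: total growth inhibition.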 Where a SMILES comes first, the peptide text is derived from it. The star is where a group is joined. Boc = CC(C)(C)OC(=O)*; Bn = c1ccc(C*)cc1

In the case of `CS(=O)(=O)O[C@H]1[C@H](O)c2ccccc2[C@@H]1N=[N+]=[N-]`, the TGI with MDA-N, in the test on 786-0 renal, in the test with EKVX NSCLC, in the test with SNB-75 CNS, in the test with UO-31 renal and with SR leukemia was > 100 µM throughout. The TGI with HOP-92 NSCLC, with BT-549 breast, in the test on SK-MEL-5 melanoma, with PC-3 prostate, in the test with ACHN renal and in the test with HL-60(TB) leukemia was > 100 µM throughout. Also, in the test with OVCAR-5 ovarian, the TGI was > 100 µM.

Take `O=C1/C(=C/c2ccc(O)c(O)c2)CC/C1=C\c1ccc(O)c(O)c1`: the TGI with MDA-N was > 100 µM; in the test with 786-0 renal, 38.2 µM; in the test on EKVX NSCLC, > 75.3 µM; in the test on SNB-75 CNS, > 80.1 µM; with UO-31 renal, 7.31 µM; in the test with SR leukemia, > 29.5 µM. In addition, the TGI is 76.1 µM with HOP-92 NSCLC; 28.9 µM with BT-549 breast; > 60.3 µM in the test on SK-MEL-5 melanoma; > 100 µM in the test with PC-3 prostate; 26.6 µM in the test on ACHN renal; > 46.2 µM with HL-60(TB) leukemia. For the same compound, the TGI with OVCAR-5 ovarian is > 100 µM.

Consider `CCCCCCCCCCOCCOCCOCCOCCCCC(O)CCCCCCCC1=C[C@H](C)OC1=O` (stereo partly specified), for which the TGI with MDA-N came out at 24.3 µM; in the test with 786-0 renal, 45.5 µM; in the test on EKVX NSCLC, 26.4 µM; with SNB-75 CNS, 24.7 µM; in the test with UO-31 renal it was 18.3 µM; in the test on SR leukemia it was 19.6 µM. Further, the TGI came out at 29.6 µM in the test on HOP-92 NSCLC; 16.1 µM in the test on BT-549 breast; 22.2 µM in the test with SK-MEL-5 melanoma; 20.9 µM in the test with PC-3 prostate; 36 µM with ACHN renal; 15.5 µM in the test with HL-60(TB) leukemia. The TGI in the test on OVCAR-5 ovarian was found to be 30.6 µM.

As to `CC(C(=O)n1ccnc1)N1c2ccccc2Sc2ccccc21` (stereo unspecified), the TGI with MDA-N, in the test with 786-0 renal, with EKVX NSCLC, in the test with SNB-75 CNS, in the test with UO-31 renal and with SR leukemia was > 100 µM throughout. The TGI is 79.9 µM in the test on HOP-92 NSCLC; > 100 µM in the test with BT-549 breast; > 100 µM with SK-MEL-5 melanoma; > 100 µM with PC-3 prostate; > 100 µM with ACHN renal; > 100 µM with HL-60(TB) leukemia. Moreover, the TGI in the test on OVCAR-5 ovarian was > 100 µM.

`C(#CC1(Nc2ccccc2)CCN(Cc2ccccc2)CC1)C1(Nc2ccccc2)CCN(Cc2ccccc2)CC1`: the TGI is > 56.2 µM with MDA-N; 39.5 µM in the test with 786-0 renal; > 46.4 µM in the test on EKVX NSCLC; 29.7 µM in the test on SNB-75 CNS; > 84.7 µM in the test with UO-31 renal; > 24.8 µM in the test with SR leukemia. Moreover, the TGI was 33.9 µM with HOP-92 NSCLC; > 100 µM in the test with BT-549 breast; 18.3 µM in the test on SK-MEL-5 melanoma; 36.5 µM with PC-3 prostate; > 56.2 µM in the test on ACHN renal; 11.7 µM with HL-60(TB) leukemia. The TGI in the test with OVCAR-5 ovarian is > 56.2 µM.

Turning to `COc1cc(CNc2c3ccccc3nc3ccccc23)cc(OC)c1OC`, the TGI with MDA-N was found to be 13 µM; in the test on 786-0 renal, 14.3 µM; in the test with EKVX NSCLC, 21.4 µM; in the test on SNB-75 CNS, 13.9 µM; in the test on UO-31 renal, 11.5 µM; with SR leukemia, 7.58 µM. Besides, the TGI was 16.7 µM in the test on HOP-92 NSCLC; 16.2 µM in the test on BT-549 breast; 7.83 µM in the test with SK-MEL-5 melanoma; 11.9 µM in the test with PC-3 prostate; 14.4 µM in the test with ACHN renal; > 21.3 µM with HL-60(TB) leukemia. The same compound gave a TGI with OVCAR-5 ovarian of 14.6 µM.

Turning to `CCC(C)C(NC(=O)C(CC(C)C)NC(=O)CNC(=O)C(NC(=O)C1CCCN1C(=O)C(CC(C)C)NC(=O)C(N)Cc1ccccc1)C(C)CC)C(=O)NC(CC(C)C)C(N)=O` (stereo unspecified) (H-FLPIGLIL-NH2; configuration not given here), the TGI in the test with MDA-N, in the test on 786-0 renal, in the test on EKVX NSCLC, with UO-31 renal, with SR leukemia and in the test on HOP-92 NSCLC was > 75 µM each time. The TGI with BT-549 breast, in the test on SK-MEL-5 melanoma, in the test with PC-3 prostate, with ACHN renal, in the test on HL-60(TB) leukemia and with OVCAR-5 ovarian was > 75 µM throughout.

In the case of `CNC(=O)C(CC(C)C)NC(=O)C(C)NC(=O)C(Cc1ccc(OCc2ccccc2)cc1)NC(=O)C(COCc1ccccc1)NC(=O)OC(C)(C)C` (stereo unspecified) (Boc-S(Bn)Y(Bn)AL-NHMe; configuration not given here), the TGI in the test on MDA-N was 30 µM and 30.9 µM; with 786-0 renal, 54.9 µM and 39.4 µM; in the test on EKVX NSCLC it was > 100 µM and 77.9 µM; in the test with SNB-75 CNS, > 31.6 µM and 22.9 µM; with UO-31 renal it was > 100 µM; with SR leukemia, > 46.1 µM and 86.9 µM. Besides, the TGI was > 80.8 µM and 51.7 µM in the test with HOP-92 NSCLC; 55.5 µM and 40.4 µM in the test with BT-549 breast; > 100 µM and 23.9 µM in the test with SK-MEL-5 melanoma; 58.4 µM and 18.6 µM in the test on PC-3 prostate; > 100 µM with ACHN renal; 30.2 µM and > 100 µM with HL-60(TB) leukemia. In addition, the TGI with OVCAR-5 ovarian is > 100 µM and 51.6 µM. Also, the GI50 is > 100 µM and 26.4 µM with EKVX NSCLC; 18.9 µM and 9 µM with SNB-75 CNS; 47.9 µM and 11.7 µM in the test on SK-MEL-5 melanoma; 19.2 µM and 2.53 µM with PC-3 prostate; > 100 µM and 13 µM in the test with ACHN renal; 9.51 µM and 3.9 µM in the test on HL-60(TB) leukemia. Further, in the test with OVCAR-5 ovarian, the GI50 was > 73.2 µM and 21.2 µM.

In the case of `O=C(NCCCN(CCCCN(CCCNC(=O)c1cc(S(=O)(=O)O)cc(O)c1O)C(=O)c1cc(S(=O)(=O)O)cc(O)c1O)C(=O)c1cc(S(=O)(=O)O)cc(O)c1O)c1cc(S(=O)(=O)O)cc(O)c1O`, the TGI in the test on MDA-N, in the test on 786-0 renal, in the test on SNB-75 CNS, in the test on UO-31 renal, in the test on SR leukemia and in the test on HOP-92 NSCLC was > 100 µM throughout. The TGI in the test with BT-549 breast, in the test with SK-MEL-5 melanoma, in the test on PC-3 prostate, with ACHN renal and in the test on HL-60(TB) leukemia was > 100 µM throughout.
